{
  "source": "patent US9134327B2",
  "about": "“STAT3 and TYK2 as drug targets for neurodegenerative diseases” (Biotechnology Research Corporation Limited, priority 2008, dated 2015)",
  "key": {"[1]": {"tested_on": "STAT3 (P-Tyr, Tyr705)", "experiment": "Tyrosine phosphorylation of STAT3 in cortical neurons, immunoblot", "assay_type": "cell-based, rat", "details": "for inhibition of Aβ-induced tyrosine phosphorylation of STAT3: primary cortical neurons pretreated with inhibitor 2 hrs, then Aβ25-35 for 4 hrs or 24 hrs", "experimental": "FIG. 2: Tyrosine phosphorylation of STAT3 is increased in cultured cortical neurons stimulated with Aβ25-35. Primary cortical neurons at 7 DIV were treated with Aβ25-35 (40 μM; H2O served as solvent control) for various times as indicated. Cell lysates were collected and subjected to immunoblotting using P-Tyr STAT3 and total STAT3 antibodies.\n(§1) FIG. 4: Tyk2 is required for beta-amyloid peptide-induced tyrosine phosphorylation of STAT3 and neuronal cell death. A. Primary cortical neurons were pretreated with various inhibitors including a potent inhibitor of JAK (JAK inhibitor 1), a JAK2 inhibitor (AG490), a Src tyrosine kinase inhibitor (PP2) and a protein synthesis inhibitor (cycloheximide) for 2 hrs as indicated, followed by treatment with Aβ25-35 peptide for 4 hrs or 24 rs. The cell lysates were immunoblotted with P-Tyr STAT3 and total STAT3 antibody. B. Primary cortical neurons were treated with Aβ25-35. The cell lysates were immunoprecipitated using Tyk2 or JAK2 antibody, and then subjected to Western blot analysis for phospho-tyrosine (P-Tyr) antibody. C. Primary cortical neurons prepared from Tyk2^−/− mice were treated with Aβ25-35. The cell lysates were subjected to immunoblotting using P-Tyr STAT3, total STAT3 and caspase-3 antibody. Quantification analysis of fold change in tyrosine phosphorylated STAT3 and cleaved caspase-3 (bottom panels).\nCultured rat cortical neurons were used as a cell culture model to investigate the role of STAT3 tyrosine phosphorylation in AD. The cortical neurons (7 DIV) were treated with Aβ peptide 25-35.\nSince Aβ induced tyrosine phosphorylation of STAT3, the next aim was to identify the upstream regulators of STAT3. Cortical neurons were pre-treated with different inhibitors prior to […] treatment. […] Cortical neurons were treated with Aβ peptide for 1 hr. Endogenous Tyk2 or JAK2 were immunoprecipitated by specific antibodies, and the precipitates were detected by monoclonal phospho-tyrosine antibody, 4G10.\nPreparation of Brain Extracts, Cell Extracts, and Western Blots: Four Brain Parts including cortex, hippocampus, cerebellum and striatum were dissected from transgenic mice of various stages (from 2 months to 18 months) and kept on dry ice. Frozen brain tissues were homogenized in homogenizing buffer (25 mM Tris-HCl, pH 7.4, 150 mM NaCl, 1 mM EDTA, pH 7.4, 50 mM NaF) with various protease inhibitors. The supernatant was kept for Western Blotting and the pellets were reextracted using RIPA lysis buffer (150 mM NaCl, 1% (v/v) Nonidet P-40, 0.5% deoxycholic acid, 0.1% (w/v) SDS) containing various protease inhibitors (2 μg/ml aprotinin, 1 mM phenylmethylsulfonyl fluoride, 5 mM benzamidine, 1 mM sodium orthovanadate (NaOV), and 10 μg/ml soybean trypsin inhibitor). Primary cultured cortical neurons or PC12 cells were harvested and lysed in RIPA lysis buffer containing protease inhibitors."}, "[2]": {"tested_on": "iNOS gene expression", "experiment": "iNOS mRNA in primary cortical neurons, real-time PCR", "assay_type": "cell-based", "experimental": "(§2) FIG. 5: Transcription activity of STAT3 in PC12 cells and iNOS RNA in cultured cortical neurons increases upon stimulation with Aβ25-35. A. PC12 cells were transfected with a STAT1 (pGAS-Luc) or STAT3 (pSTAT3-Luc) reporter gene construct together with an internal control plasmid (β-galactosidase-pCMV). The cells were differentiated by NGF for 4 days, and were then treated with Aβ25-35 or NGF (positive control) for 1 day. Luciferase activity was measured and normalized against the β-galactosidase activity in the samples. Results were normalized with β-galactosidase activity; mean±S.E., n=3; *, p<0.05. B. Primary cortical neurons at 7 DIV were pretreated with STAT3 inhibitor or JAK inhibitor I for 30 minutes, followed by Aβ25-35 (40 μM) treatment for 6 hours. Total RNA was collected and subjected to reverse transcription. The cDNA was then subjected to real-time PCR analysis using iNOS primers.\nPrimary cortical neurons were treated with Aβ peptide for 6 hr. […]\nQuantitative RT-PCR: Total RNA was isolated from Aβ-treated cortical neurons using RNeasy mini kit (Qiagen) according to the manufacturer's instruction. […] Quantitative PCR was performed with specific primers targeting specific genes using Bio-Rad MX3000P real-time PCR system."}, "[3]": {"tested_on": "STAT3", "experiment": "STAT3 luciferase reporter (pSTAT3-Luc) in PC12 cells", "assay_type": "cell-based", "details": "PC12 cells differentiated by NGF 4 days, treated 1 day", "experimental": "as §2\n(§3) To further characterize if Aβ peptide effects STAT3 transcriptional activity, PC12 cells were transfected with a luciferase construct linked to the STAT3-response enhancer element (pSTAT3-Luc). The luciferase construct linked to the STAT1-response enhancer element (pGAS-Luc) was used as a control."}, "[4]": {"tested_on": "Tyk2", "experiment": "Tyk2 tyrosine phosphorylation in cortical neurons, immunoprecipitation and phospho-tyrosine blot", "assay_type": "cell-based", "details": "cortical neurons treated 1 hr; IP Tyk2, 4G10 blot", "description": "as §1\nSince Aβ induced tyrosine phosphorylation of STAT3, the next aim was to identify the upstream regulators of STAT3. Cortical neurons were pre-treated with different inhibitors prior to iv treatment. […] Endogenous Tyk2 or JAK2 were immunoprecipitated by specific antibodies, and the precipitates were detected by monoclonal phospho-tyrosine antibody, 4G10."}, "[5]": {"tested_on": "STAT1", "experiment": "STAT1 luciferase reporter (pGAS-Luc) in PC12 cells", "assay_type": "cell-based", "details": "PC12 cells differentiated by NGF 4 days, treated 1 day", "experimental": "as §2, §3"}},
  "data": [
    {"molecule": "N#C/C(=C/c1ccc(O)c(O)c1)C(=O)NCc1ccccc1", "note": "[AG490]", "values": [
      {"measurement": "inhibition of Aβ-induced tyrosine phosphorylation of STAT3", "setting": "[1]", "result": "did not exhibit similar inhibitory effects"}
    ]},
    {"molecule": "CC(C)(C)c1nc2c3cc[nH]c(=O)c3c3cc(F)ccc3c2[nH]1", "note": "[JAK inhibitor 1]", "values": [
      {"measurement": "inhibition of Aβ-induced tyrosine phosphorylation of STAT3", "setting": "[1]", "result": "completely inhibited"},
      {"measurement": "block of Aβ-induced increase in iNOS gene expression", "setting": "[2]; primary cortical neurons 7 DIV, 30 minutes pretreatment, then Aβ25-35 40 μM for 6 hours", "result": "blocked"}
    ]},
    {"molecule": "CC(C)(C)n1nc(-c2ccc(Cl)cc2)c2c(N)ncnc21", "note": "[PP2]", "values": [
      {"measurement": "inhibition of Aβ-induced tyrosine phosphorylation of STAT3", "setting": "[1]", "result": "neither the Src kinase inhibitor PP2 nor the protein synthesis inhibitor cycloheximide affected"}
    ]},
    {"molecule": "C[C@@H]1C[C@@H]([C@H](O)CC2CC(=O)NC(=O)C2)C(=O)[C@@H](C)C1", "note": "[cycloheximide]", "values": [
      {"measurement": "inhibition of Aβ-induced tyrosine phosphorylation of STAT3", "setting": "[1]", "result": "neither the Src kinase inhibitor PP2 nor the protein synthesis inhibitor cycloheximide affected"}
    ]},
    {"molecule": "Aβ peptide 25-35: β-amyloid peptide fragment 25-35 used to stimulate neurons and PC12 cells (GSNKGAIIGLM; Amyloid-beta protein 42; UniProt P05067 696-706, looked up, fragment)", "values": [
      {"measurement": "tyrosine phosphorylation of STAT3 induced by treatment", "setting": "[1]; cortical neurons 7 DIV, Aβ25-35 40 μM, up to 4 hrs", "result": "significant increase in tyrosine phosphorylation of STAT3"},
      {"measurement": "STAT3 promoter activity (pSTAT3-Luc luciferase)", "setting": "[3]", "result": "only induced the STAT3 promoter activity"},
      {"measurement": "Tyk2 tyrosine phosphorylation after treatment", "setting": "[4]", "result": "could be detected"},
      {"measurement": "STAT1 promoter activity (pGAS-Luc luciferase)", "setting": "[5]", "result": "only induced the STAT3 promoter activity"},
      {"measurement": "iNOS gene expression level after treatment", "setting": "[2]; primary cortical neurons, 6 hr treatment", "result": "increased"}
    ]},
    {"molecule": "NGF: growth factor used to differentiate PC12 cells; positive control in the reporter assay (protein, UniProt P25427 122-241, looked up) Beta-nerve growth factor: SSTHPVFHMGEFSVCDSVSVWVGDKTTATDIKGKEVTVLGEVNINNSVFKQYFFETKCRAPNPVESGCRGIDSKHWNSYCTTTHTFVKALTTDDKQAAWRFIRIDTACVCVLSRKAARRG", "values": [
      {"measurement": "STAT3 promoter activity (pSTAT3-Luc luciferase)", "setting": "[3]", "result": "induced the promoter activity of both STAT3 and STAT1"},
      {"measurement": "STAT1 promoter activity (pGAS-Luc luciferase)", "setting": "[5]", "result": "induced the promoter activity of both STAT3 and STAT1"}
    ]}
  ]
}
